From patent EP1779900A1, “Cosmetic or dermatological composition for prevention of light-induced aging” (Apotheker Walter Bouhon GmbH, priority 2005, dated 2007)

System: interstitiellen Kollagenase 1 (Matrixmetalloproteinase-1, MMP1)
Experiment: Inhibition of UV-A-induced MMP1 mRNA expression in human dermal fibroblasts (real-time PCR, in vitro)
Format: cell-based
Details: 20 J/cm^2 UV-A, versus control
Excerpt: Es wird die Hemmung der UV-A-induzierten Genexpression am Beispiel der interstitiellen Kollagenase 1 (Matrixmetalloproteinase-1, MMP1) in humanen dermalen Fibroblasten untersucht. Die UV-A-induzierte Expression von MMP1 mRNS wird mittels Echtzeit PCR (Polymerase-Kettenreaktion) aus Zellen, die 24 Stunden nach der Bestrahlung mit 20 J/cm^2 geerntet worden sind, im Vergleich zu unbehandelten zeitgleichen Kontrollen bestimmt.
Da Serum Vitamin-A enthält, werden die verwendeten Zellkulturen für 24 Stunden serum-depriviert. Zur Kontrolle wird die Genexpression an unbehandelten Zellen ohne und mit UV-A-Bestrahlung ermittelt. In einer Konzentrationsreihe von 0,1 bis 30 µM an zugesetztem Retinol wird jeweils die Genexpression der unbestrahlten und der mit UV-A bestrahlten Zellkulturen bestimmt.
Wiederum wird eine Kontrollmessung der Genexpression an unbehandelten Zellkulturen mit und ohne UV-A-Bestrahlung durchgeführt. Den Zellkulturen wird in einer Konzentrationsreihe zwischen 5 und 100µM Generol® R, ein käuflich erwerbbares Produkt der Cognis France SA zugefügt. Generol® R ist eine Mischung aus verschiedenen Phytosterolen und wird aus Raps gewonnen. Generol® R besteht zu 40 bis 60% aus Sitosterol, 25 bis 40% Campesterol, 7 bis 18% Brassicasterol und einem geringem Anteil an Stigmasterol. Zum Erreichen der beschriebenen Konzentrationsreihe wurde Generol® R entsprechend verdünnt. […]

SMILES: CC1=C(/C=C/C(C)=C/C=C/C(C)=C/CO)C(C)(C)CCC1 [Vitamin-A, Retinol]
- Hemmung der MMP1-Expression (Vitamin-A 10-25 µM (series 0,1-30 µM Retinol), serum-deprived 24 h, cells harvested 24 h after irradiation): ≤ 82%

SMILES: Cc1c(C)c2c(c(C)c1OC(=O)CCC(=O)O)CCC(C)(CCCC(C)CCCC(C)CCCC(C)C)O2 (centres unmarked) [Vitamin-E-Sukzinat]
- Hemmung der MMP1 mRNS-Expression (Vitamin-E-Sukzinat 10-75 µM, 24 h after irradiation): ≤ 75%
